In patent publication US20260034112A1, “MULTI-CYCLIC IRAK1 AND IRAK4 INHIBITING COMPOUNDS AND USES THEREOF” (CHILDREN'S HOSPITAL MEDICAL CENTER, priority 2022, published 2026):
≈ marks a conversion by molar mass, not a printed value. Where “and” joins values, the source holds several entries; their conditions need not be identical. Equal entries are not always repeated. Where two headings read alike, the source gives them in different places.

Legend:
[1] = system: MDS/AML cell lines and patient-derived samples; assay: Clonogenic assay (colony formation in methylcellulose); format: cell-based, human; conditions: for Colony formation after in vitro exposure: AML(1714) cells, 500 nM for 21 days, then 250 live cells plated, 10 days
IRAK1 [2] = target: T1, IRAK1 (Homo sapiens, UniProt P51617); assay: Reaction Biology Kinase Assay service, kinase inhibition (IC50); format: biochemical; conditions: for IRAK4:IRAK1 potency ratio: calculated from the IRAK1 and IRAK4 IC50
T1 construct: purchased Reaction Biology (contract assay service)
T1 sequence (P51617 whole entry): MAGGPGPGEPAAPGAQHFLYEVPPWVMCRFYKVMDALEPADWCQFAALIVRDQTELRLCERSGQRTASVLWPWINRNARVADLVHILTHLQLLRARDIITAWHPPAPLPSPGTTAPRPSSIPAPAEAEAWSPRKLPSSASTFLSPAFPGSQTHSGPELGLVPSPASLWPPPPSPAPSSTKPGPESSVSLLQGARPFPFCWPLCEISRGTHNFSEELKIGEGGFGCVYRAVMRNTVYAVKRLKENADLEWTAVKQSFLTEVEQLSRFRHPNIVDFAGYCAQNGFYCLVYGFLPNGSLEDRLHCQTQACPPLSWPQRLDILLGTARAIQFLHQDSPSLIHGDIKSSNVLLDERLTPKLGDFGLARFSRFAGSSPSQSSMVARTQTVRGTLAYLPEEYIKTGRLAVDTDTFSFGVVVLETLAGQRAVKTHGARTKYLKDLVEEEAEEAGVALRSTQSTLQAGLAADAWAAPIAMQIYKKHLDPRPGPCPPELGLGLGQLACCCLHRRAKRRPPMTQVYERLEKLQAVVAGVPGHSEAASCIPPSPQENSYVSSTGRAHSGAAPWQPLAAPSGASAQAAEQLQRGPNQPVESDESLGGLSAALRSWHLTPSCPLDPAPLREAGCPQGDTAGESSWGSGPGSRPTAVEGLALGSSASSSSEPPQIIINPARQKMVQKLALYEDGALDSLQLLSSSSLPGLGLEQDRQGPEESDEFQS

IRAK4 [3] = target: T2, IRAK4 (Homo sapiens, UniProt Q9NWZ3); assay: as above; format: biochemical
T2 construct: purchased Reaction Biology (contract assay service)
T2 sequence (Q9NWZ3 1-460): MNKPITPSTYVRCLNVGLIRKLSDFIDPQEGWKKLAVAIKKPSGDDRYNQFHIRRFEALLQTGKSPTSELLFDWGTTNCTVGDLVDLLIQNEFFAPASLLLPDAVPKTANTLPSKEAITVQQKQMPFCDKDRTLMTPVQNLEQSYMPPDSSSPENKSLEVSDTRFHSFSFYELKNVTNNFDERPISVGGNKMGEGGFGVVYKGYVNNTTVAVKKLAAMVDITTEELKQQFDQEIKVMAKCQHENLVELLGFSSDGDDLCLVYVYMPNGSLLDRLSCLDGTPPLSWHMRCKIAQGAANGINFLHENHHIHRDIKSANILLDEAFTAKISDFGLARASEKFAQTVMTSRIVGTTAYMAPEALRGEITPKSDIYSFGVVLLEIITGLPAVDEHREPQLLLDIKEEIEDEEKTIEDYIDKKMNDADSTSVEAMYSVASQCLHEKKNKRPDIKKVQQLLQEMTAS

[4] = system: NF-kB activity upon TLR2 stimulation with PAM3CSK4 in THP1-Blue NF-kB SEAP reporter cells; assay: THP1-Blue NF-kB SEAP reporter assay, TLR2 stimulation with PAM3CSK4; format: cell-based, human; conditions: for Suppression of TLR2-mediated activation of NF-kB: THP1 cells
[5] = system: NF-kB activity upon IL-1β stimulation (IL-1R) in THP1 NF-kB reporter cells; assay: THP1 NF-kB reporter assay, IL-1β stimulation; format: cell-based, human; conditions: for Suppression of NF-kB signaling through the IL-1 receptor: result in words
[6] = Survival in xenograft mice versus emavusertib and gilteritinib (FIG. 28); conditions: compared to emavusertib (CA-4948) and gilteritinib
IRAK1 [7] = target: T1, IRAK1; assay: DiscoverX KINOMEscan Profiling Service, dissociation constant; format: binding
IRAK4 [8] = target: T2, IRAK4; assay: as above; format: binding
[9] = system: IRAK1 phosphorylation in MDS/AML cells; assay: Immunoblotting for phospho-IRAK1; format: cell-based, human; conditions: THP1 and MDSL cells, 500 nM, 24 hours
THP1 cells = format: cell-based, human; conditions: AML cells versus vehicle
AML(1714) cells = assay: Xenograft of AML(1714) cells pre-treated in vitro for 21 days; format: in vivo; conditions: AML(1714) pre-treated 500 nM 21 days, xenografted NSGS mice
[10] = system: AML(64519), AML(0169), and MDS(76960) cells; assay: Patient-derived AML/MDS xenografts treated orally; format: in vivo, NSGS mice; conditions: PO daily, Compound 14 30 mg/kg or Compound 15 100 mg/kg; for Median survival: NSGS mice engrafted with AML(0169), vehicle 29 days; for Leukemic cell engraftment in the PB: AML(64519), AML(0169), MDS(76960) at day 40, 29, 48, versus vehicle
[11] = Microsomal stability (Mic t½), rat; format: in vitro ADME
[12] = Microsomal stability (Mic t½), mouse; format: in vitro ADME
[13] = Plasma protein binding, mouse; format: in vitro ADME
[14] = Plasma protein binding, human; format: in vitro ADME
Solubility = format: physicochemical
PAMPA = format: in vitro ADME
[15] = Pharmacokinetic analysis, drug concentration after PO dosing
[16] = system: MDSL, THP1, OCIAML3, AML(1714), and AML(1294) cells; assay: Annexin V staining (apoptosis); format: cell-based, human; conditions: 500 nM, 48 hours
[17] = system: MDS/AML cell lines and patient-derived samples; assay: Differentiation: Wright-Giemsa stains and CD38 immunophenotyping; format: cell-based, human
[18] = system: healthy donor CD34+ cells; assay: Myeloid and erythroid colony formation of healthy donor cells; format: cell-based, human; conditions: same concentrations as in the leukemic colony assay
[19] = Microsomal stability (Mic t½), human; format: in vitro ADME
[20] = functional biochemical assay, read-out: IRAK1 IC50
[21] = functional biochemical assay, read-out: IRAK4 IC50
[22] = THP1 NF-kB reporter cells, read-out: IC50 vs. IL-1β (NF-kB activation)

CC(=O)c1cc2c(o1)C(=O)c1ccccc1C2=O [BB1608]
Colony formation of knockout THP1 cells with STAT inhibitor ([1]; IRAK4KO versus IRAK1KO, MyD88KO or WT THP1 cells, 500 nM): sensitive

COc1cc2ncc(-c3nc(N[C@@H]4CCCNC4)c(F)cc3F)n2nc1C1CC1 [Compound 8]
LOG (IRAK1) (IRAK1 [2]; Table 1, log of IRAK1 IC50): 1.43
IC50 (IRAK1 [2]; Table 1, unit nM, read-out: Reaction Bio IRAK1 IC50): 27.2 nM
LOG (IRAK4) (IRAK4 [3]; Table 1, log of IRAK4 IC50): 0.19
IC50 (IRAK4 [3]; Table 1, unit nM, read-out: Reaction Bio IRAK4 IC50): 1.54 nM
IC50 ([4]; Homo sapiens, THP-1, Table 1, unit nM, read-out: THP-1 NFkB PAM IC50): 62.9 nM
LOG (PAM) ([4]; Table 1, log of PAM IC50): 1.80
IC50 ([5]; Homo sapiens, THP-1, Table 1, unit nM, read-out: THP-1 NFkB IL1B IC50): 58.7 nM
LOG (IL1B) ([5]; Table 1, log of IL1B IC50): 1.77
Survival in xenograft mice [6]: enhanced survival

COc1ccc2ncc(-c3cccc(N[C@@H]4CCCNC4)n3)n2c1 [Compound 14]
IRAK4:IRAK1 potency ratio (IRAK1 [2]): 100
IC50 (IRAK1 [2]; [20]): > 500 nM
IC50 (IRAK4 [3]; [21]): 5 nM
Kd (IRAK1 [7]): 150 nM
Kd (IRAK4 [8]): 5 nM
Suppression of TLR2-mediated activation of NF-kB ([4]; at 5 μM): ~80%
IC50 [5, 22]: 227 nM
Suppression of NF-kB signaling through the IL-1 receptor ([5]; THP1 NF-kB reporter cells): completely suppress
Colony formation after in vitro exposure [1]: only partially suppressed
Reduction in leukemia progenitor cell colony formation ([1]; MDS/AML cell lines, 250 nM or 1 μM): 60-75%
Reduction in leukemia progenitor cell colony formation ([1]; all MDS/AML cell lines and patient-derived samples, 250 nM or 1 μM): approximately 75%
Reduction in leukemia progenitor cell colony formation ([1]; patient-derived AML samples, 250 nM or 1 μM): 80-85%
Phosphorylation of IRAK1 [9]: did not affect phosphorylation of IRAK1
Effect on genes of the IRAK1/4 AML signature (THP1 cells): unremarkable effect
Leukemic engraftment and AML development of pre-treated cells (AML(1714) cells): only partially suppressed
Median survival [10]: 33 days
Leukemic cell engraftment in the PB [10]: did not significantly suppress
Tier 1 Mic t½ (r) [11]: >30 min
Tier 2 Mic t½ (m) [12]: N.D./25/N.D. min
Plasma Prot Bind (% free - ms) [13]: 38.6 % free
Plasma Prot Bind (% free - h) [14]: 26.5 % free
Solubility (Solubility): >48 mg/mL
PAMPA (PAMPA): 746 10^−6 cm/s
Mean Free Drug Concentration ([15]; PO 30 mg/kg, 0.25 h): 336 nM
Mean Total Drug Concentration ([15]; PO 30 mg/kg, 0.25 h): 869 nM
Mean Free Drug Concentration ([15]; PO 30 mg/kg, 0.5 h): 360 nM
Mean Total Drug Concentration ([15]; PO 30 mg/kg, 0.5 h): 932 nM
Mean Free Drug Concentration ([15]; PO 30 mg/kg, 1 h): 309 nM
Mean Total Drug Concentration ([15]; PO 30 mg/kg, 1 h): 801 nM
Mean Free Drug Concentration ([15]; PO 30 mg/kg, 2 h): 217 nM
Mean Total Drug Concentration ([15]; PO 30 mg/kg, 2 h): 562 nM
Mean Free Drug Concentration ([15]; PO 30 mg/kg, 4 h): 101 nM
Mean Total Drug Concentration ([15]; PO 30 mg/kg, 4 h): 262 nM
Mean Free Drug Concentration ([15]; PO 30 mg/kg, 8 h): 30 nM
Mean Total Drug Concentration ([15]; PO 30 mg/kg, 8 h): 78 nM
Mean Free Drug Concentration ([15]; PO 30 mg/kg, 24 h): 0 nM
Mean Total Drug Concentration ([15]; PO 30 mg/kg, 24 h): 0 nM

CC1(c2ccc3ncc(-c4cccc(N[C@@H]5CCNC5)n4)n3c2)CC1 [Compound 15]
IRAK4:IRAK1 potency ratio (IRAK1 [2]): 36
IC50 (IRAK1 [2]; [20]): 32 nM
IC50 (IRAK4 [3]; [21]): 0.9 nM
Kd (IRAK1 [7]): 2.2 nM
Kd (IRAK4 [8]): 0.2 nM
IC50 ([4]; THP1 NF-kB reporter cells, read-out: IC50 vs. Pam3CSK4 (TLR2-mediated NF-kB activation)): 6.3 nM and 4.5 nM
Suppression of TLR2-mediated activation of NF-kB ([4]; at 100 nM): completely suppressed
IC50 [5, 22]: 9.3 nM
Suppression of NF-kB signaling through the IL-1 receptor ([5]; THP1 NF-kB reporter cells): completely suppress
Colony formation after in vitro exposure [1]: significantly diminished colony formation
Suppression of leukemia progenitor cell colony formation ([1]; MDS/AML cell lines and patient-derived samples, 250 nM or 1 μM, complete in all samples except THP1): complete suppression of leukemia progenitor cell colony formation
Phosphorylation of IRAK1 [9]: inhibited auto-phosphorylation of IRAK1
Genes of the IRAK1/4 AML signature suppressed (THP1 cells): ~65%
Apoptosis (Annexin V staining) [16]: more effective than Compound 14 at mediating apoptosis
Morphology (Wright-Giemsa staining) ([17]; 500 nM, 12 days): heterogeneous morphologies and size and increased cytoplasmic to nuclear ratios
Expression of CD38 ([17]; 12 days of treatment, versus Compound 14 or vehicle): greater expression of CD38
Erythroid colony formation of healthy donor CD34+ cells [18]: increased erythroid colony formation
Myeloid cell colonies of healthy donor CD34+ cells [18]: only modesty inhibited
Leukemic engraftment and AML development of pre-treated cells (AML(1714) cells): complete loss of leukemic engraftment and AML development
Median survival [10]: 40 days
Leukemic cell engraftment in the PB [10]: significantly reduced
Tier 1 Mic t½ (r) [11]: >30 min
Tier 2 Mic t½ (r) [11]: 68 min
Tier 2 Mic t½ (m) [12]: 29 min
Tier 2 Mic t½ (h) [19]: 1.7 h
Plasma Prot Bind (% free - ms) [13]: 6.85 % free
Plasma Prot Bind (% free - h) [14]: 2.46 % free
Solubility (Solubility): 31 mg/mL (≈ 93 mM)
PAMPA (PAMPA): 495 10^−6 cm/s
Mean Free Drug Concentration ([15]; PO 100 mg/kg, 0.25 h): 263 nM
Mean Total Drug Concentration ([15]; PO 100 mg/kg, 0.25 h): 3845 nM
Mean Free Drug Concentration ([15]; PO 100 mg/kg, 0.5 h): 258 nM
Mean Total Drug Concentration ([15]; PO 100 mg/kg, 0.5 h): 3764 nM
Mean Free Drug Concentration ([15]; PO 100 mg/kg, 1 h): 207 nM
Mean Total Drug Concentration ([15]; PO 100 mg/kg, 1 h): 3018 nM
Mean Free Drug Concentration ([15]; PO 100 mg/kg, 2 h): 139 nM
Mean Total Drug Concentration ([15]; PO 100 mg/kg, 2 h): 2034 nM
Mean Free Drug Concentration ([15]; PO 100 mg/kg, 4 h): 109 nM
Mean Total Drug Concentration ([15]; PO 100 mg/kg, 4 h): 1594 nM
Mean Free Drug Concentration ([15]; PO 100 mg/kg, 8 h): 50 nM
Mean Total Drug Concentration ([15]; PO 100 mg/kg, 8 h): 726 nM
Mean Free Drug Concentration ([15]; PO 100 mg/kg, 24 h): 1 nM
Mean Total Drug Concentration ([15]; PO 100 mg/kg, 24 h): 9 nM
